Results from PMC9917560, “Design, Synthesis and Antimicrobial Evaluation of New N-(1-Hydroxy-1,3-dihydrobenzo[c][1,2]oxaborol-6-yl)(hetero)aryl-2-carboxamides as Potential Inhibitors of Mycobacterial Leucyl-tRNA Synthetase” (International Journal of Molecular Sciences, 2023).
In brackets after ≈: the same amount, converted by molar mass. Like-named read-outs stand apart in the source and are kept apart here.

Tests used:
[1] = test system: Trichophyton interdigitale CCM 8377 (ATCC 9533); test: Antifungal microdilution broth (EUCAST); type: cell-based; settings: Trichophyton interdigitale, read-out: MIC Trichophyton interdigitale
[2] = test system: methicillin-resistant Staphylococcus aureus subsp. aureus (MRSA) CCM 4750 (ATCC 43300); test: microbe, parasite or virus in culture; type: cell-based; settings: read-out: MIC Methicillin-resistant Staphylococcus aureus subsp. aureus
[3] = test system: Mycobacterium tuberculosis H37Ra ITM-M006710 (ATCC 9431); test: Antimycobacterial microdilution (resazurin) vs Mtb H37Ra; type: cell-based; settings: Middlebrook 7H9, resazurin, recalculated from µg/mL, read-out: MIC Mtb H37Ra
[4] = test system: Escherichia coli CCM 3954 (ATCC 25922); test: Antibacterial microdilution broth (EUCAST); type: cell-based; settings: Escherichia coli, read-out: MIC Escherichia coli
[5] = test system: Mtb IZAK (MDR clinical isolate); test: microbe, parasite or virus in culture; type: cell-based; settings: Mycobacterium tuberculosis, read-out: MIC Mtb IZAK
[6] = test system: Staphylococcus epidermidis CCM 4418 (ATCC 12228); test: Antibacterial microdilution broth (EUCAST); type: cell-based; settings: read-out: MIC Staphylococcus epidermidis
[7] = test system: Enterococcus faecalis CCM 4224 (ATCC 29212); test: Antibacterial microdilution broth (EUCAST); type: cell-based; settings: read-out: MIC Enterococcus faecalis
[8] = test system: Mtb MATI (MDR clinical isolate); test: microbe, parasite or virus in culture; type: cell-based; settings: Mycobacterium tuberculosis, read-out: MIC Mtb MATI
[9] = test system: Mycobacterium avium DSM 44,156 (ATCC 25291); test: Antimycobacterial microdilution (resazurin) vs M. avium; type: cell-based; settings: Mycobacterium avium, Middlebrook 7H9, resazurin; read-out: MIC M. avium
[10] = test system: Mycobacterium tuberculosis H37Rv CNCTC My 331/88 (ATCC 27294); test: Microplate Alamar Blue assay vs Mtb H37Rv; type: cell-based; settings: Mycobacterium tuberculosis, pH 6.6, MABA, Middlebrook 7H9 pH 6.6, recalculated from µg/mL; read-out: MIC Mtb H37Rv
[11] = test system: Candida krusei CCM 8271 (ATCC 6258); test: Antifungal microdilution broth (EUCAST); type: cell-based; settings: Pichia kudriavzevii, read-out: MIC Candida krusei
[12] = test system: Candida albicans CCM 8320 (ATCC 24433); test: Antifungal microdilution broth (EUCAST); type: cell-based; settings: Candida albicans, read-out: MIC Candida albicans
[13] = test system: Mycolicibacterium smegmatis DSM 43,465 (ATCC 607); test: Antimycobacterial microdilution (resazurin) vs M. smegmatis; type: cell-based
[14] = test system: Aspergillus flavus CCM 8363; test: Antifungal microdilution broth (EUCAST); type: cell-based; settings: Aspergillus flavus, CCM8363, read-out: MIC Aspergillus flavus
[15] = test system: Klebsiella pneumoniae CCM 4415 (ATCC 10031); test: Antibacterial microdilution broth (EUCAST); type: cell-based; settings: Klebsiella pneumoniae, read-out: MIC Klebsiella pneumoniae
[16] = test system: Acinetobacter baumannii DSM 30007 (ATCC 19606); test: Antibacterial microdilution broth (EUCAST); type: cell-based; settings: read-out: MIC Acinetobacter baumannii
[17] = test system: Lichtheimia corymbifera CCM 8077; test: Antifungal microdilution broth (EUCAST); type: cell-based; settings: Lichtheimia corymbifera, CCM8077, read-out: MIC Lichtheimia corymbifera
[18] = test system: Pseudomonas aeruginosa CCM 3955 (ATCC 27853); test: Antibacterial microdilution broth (EUCAST); type: cell-based; settings: read-out: MIC Pseudomonas aeruginosa
[19] = test system: Candida parapsilosis CCM 8260 (ATCC 22019); test: Antifungal microdilution broth (EUCAST); type: cell-based; settings: Lodderomyces parapsilosis, read-out: MIC Candida parapsilosis
HepG2 cell line = test: Cytotoxicity screening, CellTiter 96 assay; settings: for IC50: Homo sapiens, HepG2, 24 h, read-out: IC50 HepG2
[20] = test system: Staphylococcus aureus subsp. aureus CCM 4223 (ATCC 29213); test: Antibacterial microdilution broth (EUCAST); type: cell-based; settings: read-out: MIC Staphylococcus aureus subsp. aureus
[21] = test system: Candida tropicalis CCM 8264 (ATCC 750); test: Antifungal microdilution broth (EUCAST); type: cell-based; settings: read-out: MIC Candida tropicalis
[22] = test system: Aspergillus fumigatus ATCC 204305; test: Antifungal microdilution broth (EUCAST); type: cell-based; settings: Aspergillus fumigatus, ATCC204305, read-out: MIC Aspergillus fumigatus
[23] = test system: Mycolicibacterium aurum DSM 43,999 (ATCC 23366); test: Antimycobacterial microdilution (resazurin) vs M. aurum; type: cell-based; settings: Middlebrook 7H9, resazurin, read-out: MIC M. aurum
[24] = test system: Mycobacterium kansasii DSM 44,162 (ATCC 12478); test: Antimycobacterial microdilution (resazurin) vs M. kansasii; type: cell-based; settings: Middlebrook 7H9, resazurin, read-out: MIC M. kansasii
Mtb laboratory ID MATI = type: cell-based, Mycobacterium tuberculosis; settings: strain MATI; for Concentration: CLSI 2021; for Susceptibility: CLSI breakpoints 2021
Mtb laboratory ID IZAK = type: cell-based, Mycobacterium tuberculosis; settings: strain IZAK; for Susceptibility: CLSI breakpoints 2020
[25] = Middlebrook 7H9, resazurin, read-out: MIC M. smeg.

O=C(Nc1ccc2c(c1)B(O)OC2)c1ccccn1 [Compound 10, N-(1-hydroxy-1,3-dihydrobenzo[c][1,2]oxaborol-6-yl)picolinamide]
melting point: 183.7 to 186.1 °C
MIC ([1]; 72h incubation): > 500 µM
MIC ([1]; 120h incubation): > 500 µM
MIC ([2]; 24 h): 250 µM (≈ 63.5 µg/mL)
MIC ([2]; 48 h): 250 µM (≈ 63.5 µg/mL)
MIC [3]: < 62 µM
MIC ([4]; 24h incubation): > 500 µM
MIC ([4]; 48h incubation): > 500 µM
MIC [5]: 98.4 µM (≈ 25 µg/mL)
MIC ([6]; 24h incubation): 500 µM (≈ 127 µg/mL)
MIC ([6]; 48h incubation): 500 µM (≈ 127 µg/mL)
MIC ([7]; 24h incubation): > 500 µM
MIC ([7]; 48h incubation): > 500 µM
MIC [8]: 98.4 µM (≈ 25 µg/mL)
MIC [9]: < 62 µM
MIC [10]: < 62 µM
MIC ([11]; 24h incubation): > 500 µM
MIC ([11]; 48h incubation): > 500 µM
MIC ([12]; 24h incubation): > 500 µM
MIC ([12]; 48h incubation): > 500 µM
MIC [13, 25]: < 62 µM
MIC ([13]; read-out: MIC M. smeg., Middlebrook 7H9, resazurin): 61.5 µM (≈ 15.6 µg/mL)
MIC ([14]; 24h incubation): > 500 µM
MIC ([14]; 48h incubation): > 500 µM
MIC ([15]; 24h incubation): > 500 µM
MIC ([15]; 48h incubation): > 500 µM
MIC ([16]; 24h incubation): > 500 µM
MIC ([16]; 48h incubation): > 500 µM
MIC ([17]; 24h incubation): > 500 µM
MIC ([17]; 48h incubation): > 500 µM
MIC ([18]; 24h incubation): > 500 µM
MIC ([18]; 48h incubation): > 500 µM
MIC ([19]; 24h incubation): > 500 µM
MIC ([19]; 48h incubation): > 500 µM
IC50 (HepG2 cell line): > 1000 µM
MIC ([20]; 24h incubation): 250 µM (≈ 63.5 µg/mL)
MIC ([20]; 48h incubation): 250 µM (≈ 63.5 µg/mL)
MIC ([21]; 24h incubation): > 500 µM
MIC ([21]; 48h incubation): > 500 µM
MIC ([22]; 24h incubation): > 500 µM
MIC ([22]; 48h incubation): > 500 µM

O=C(Nc1ccc2c(c1)B(O)OC2)c1cnc2ccccc2n1 [Compound 17, N-(1-hydroxy-1,3-dihydrobenzo[c][1,2]oxaborol-6-yl)quinoxaline-2-carboxamide]
MIC ([1]; 72h incubation): > 500 µM
MIC ([1]; 120h incubation): > 500 µM
MIC ([2]; 24 h): > 500 µM
MIC ([2]; 48 h): > 500 µM
MIC [3]: > 819 µM
MIC ([4]; 24h incubation): > 500 µM
MIC ([4]; 48h incubation): > 500 µM
MIC [5]: 41 µM (≈ 12.5 µg/mL)
MIC ([6]; 24h incubation): > 500 µM
MIC ([6]; 48h incubation): > 500 µM
MIC ([7]; 24h incubation): > 500 µM
MIC ([7]; 48h incubation): > 500 µM
MIC [8]: 41 µM (≈ 12.5 µg/mL)
MIC [9]: 102 µM (≈ 31.3 µg/mL)
MIC [23]: 12.8 µM (≈ 3.91 µg/mL)
MIC [10]: 20.5 µM (≈ 6.25 µg/mL)
MIC ([11]; 24h incubation): > 500 µM
MIC ([11]; 48h incubation): > 500 µM
MIC [24]: 25.6 µM (≈ 7.81 µg/mL)
MIC ([12]; 24h incubation): > 500 µM
MIC ([12]; 48h incubation): > 500 µM
MIC [13, 25]: 12.8 µM (≈ 3.91 µg/mL)
MIC ([14]; 24h incubation): > 500 µM
MIC ([14]; 48h incubation): > 500 µM
MIC ([15]; 24h incubation): > 500 µM
MIC ([15]; 48h incubation): > 500 µM
MIC ([16]; 24h incubation): > 500 µM
MIC ([16]; 48h incubation): > 500 µM
MIC ([17]; 24h incubation): > 500 µM
MIC ([17]; 48h incubation): > 500 µM
MIC ([18]; 24h incubation): > 500 µM
MIC ([18]; 48h incubation): > 500 µM
MIC ([19]; 24h incubation): > 500 µM
MIC ([19]; 48h incubation): > 500 µM
IC50 (HepG2 cell line): > 250 µM
toxicity to HepG2 up to highest tested concentration (HepG2 cell line; tested up to 500 µM (2, 3), 250 µM (12, 17), 100 µM (6, 7, 11) because of solubility): non-toxic
MIC ([20]; 24h incubation): > 500 µM
MIC ([20]; 48h incubation): > 500 µM
MIC ([21]; 24h incubation): > 500 µM
MIC ([21]; 48h incubation): > 500 µM
MIC ([22]; 24h incubation): > 500 µM
MIC ([22]; 48h incubation): > 500 µM

CC[C@@H](CO)NCCN[C@@H](CC)CO [EMB, ethambutol]
Concentration (Mtb laboratory ID MATI): 2.45 µM
Susceptibility (Mtb laboratory ID MATI): sensitive
MIC [5]: 7.64 µM (≈ 1.56 µg/mL)
MIC [8]: 7.64 µM (≈ 1.56 µg/mL)
MIC [10]: 1.91 µM (≈ 0.39 µg/mL)
Concentration (Mtb laboratory ID IZAK; CLSI 2020): 2.45 µM
Susceptibility (Mtb laboratory ID IZAK): sensitive

NNC(=O)c1ccncc1 [INH, isoniazid, reference compound]
MIC [3]: 3.65 µM (≈ 0.501 µg/mL)
Concentration (Mtb laboratory ID MATI): >58.33 µM
Susceptibility (Mtb laboratory ID MATI): resistant
MIC [5]: 91.2 µM (≈ 12.5 µg/mL)
MIC [8]: > 91.2 µM
MIC [9]: 7290 µM (≈ 1000 µg/mL)
MIC [23]: 28.5 µM (≈ 3.91 µg/mL)
MIC [10]: 2.84 µM (≈ 0.389 µg/mL)
MIC [24]: 45.6 µM (≈ 6.25 µg/mL)
MIC [13, 25]: 228 µM (≈ 31.3 µg/mL)
Susceptibility (Mtb laboratory ID IZAK): resistant
